Where two headings read alike, the source gives them in different places.
What was measured:
[1] = system: MCF-7 (human breast cancer); test: SRB cytotoxicity assay, MCF-7 cells; assay type: cell-based; conditions: read-out: IC50 MCF-7
Method: (§1) The methanol extracts and the isolated compounds were evaluated for their cytotoxic activities against several cell lines, including murine lymphocytic leukaemia (P-388), human oral epidermoid carcinoma (KB), human colon carcinoma (Col-2 and HT-29), human breast cancer (MCF-7), human lung carcinoma (Lu-1 and A549), rat glioma (ASK), and noncancerous human embryonic kidney cell (HEK-293) by sulforhodamine B (SRB) assay in 96-well microtiter plates (Skehan et al. [1990]). This method measures the cellular protein content of cultures in 96-well microtiter plates. The cell lines were seeded into 96-well microtiter plates and treated with the test compounds at concentrations of 0.16–20 µg/mL for 72 h, except for the P-388 cells, which were treated for 48 h. Then the cell cultures were fixed with 20% trichloroacetic acid (Merck) and stained with 0.4% SRB (Sigma-Aldrich) dissolved in 1% acetic acid (Merck) for 1 h. The cellular-protein-bound dye was extracted with 10 mM unbuffered Trisbase solution (pH 10.5) (Sigma-Aldrich) for the determination of optical density at 510 nm with a microtiter plate reader (Thermo Scientific™ Multiskan™ GO Microplate Spectrophotometer). The cytotoxic potency was expressed as median inhibition concentrations (IC50), the concentration that inhibits 50% of cell viability (µg/mL and µM). The IC50 values were determined from the nonlinear regression curve fit in GraphPad Prism software (version 5). Ellipticine (Sigma-Aldrich), a cytotoxic plant alkaloid causing topoisomerase II inhibition and DNA intercalation, was used as a positive control.

[2] = system: P-388 (murine lymphocytic leukaemia); test: SRB cytotoxicity assay, P-388 cells; assay type: cell-based; conditions: Mus musculus, read-out: IC50 P-388
Method: as §1

ASK (rat glioma) = test: SRB cytotoxicity assay, ASK cells; assay type: cell-based; conditions: 72 h, read-out: IC50 ASK
Method: as §1

[3] = system: A549 (human lung carcinoma); test: SRB cytotoxicity assay, A549 cells; assay type: cell-based; conditions: read-out: IC50 A549
Method: as §1

[4] = system: KB (human oral epidermoid carcinoma); test: SRB cytotoxicity assay, KB cells; assay type: cell-based; conditions: 72 h, read-out: IC50 KB
Method: as §1

[5] = system: Hek-293 (noncancerous human embryonic kidney cell); test: SRB cytotoxicity assay, Hek-293 cells; assay type: cell-based; conditions: read-out: IC50 Hek-293
Method: as §1

[6] = system: HT-29 (human colon carcinoma); test: SRB cytotoxicity assay, HT-29 cells; assay type: cell-based; conditions: read-out: IC50 HT-29
Method: as §1

[7] = system: P-388, KB, HT-29, MCF-7, A549, ASK and Hek-293 cells; test: SRB cytotoxicity assay, panel of tested cell lines (summary statements); assay type: cell-based
Method: as §1

[8] = MCF7, SRB assay, 0.16–20 µg/mL, 72 h
[9] = P388, SRB assay, 0.16–20 µg/mL, 48 h
[10] = A549, SRB assay, 0.16–20 µg/mL, 72 h
[11] = Homo sapiens, HEK293, 72 h, SRB assay, non-cancerous cells, 0.16–20 µg/mL, 72 h
[12] = HT-29, SRB assay, 0.16–20 µg/mL, 72 h
[13] = SRB assay, non-cancerous cells, 0.16–20 µg/mL, 72 h
[14] = read-out: IC50 values, range for some of the tested cells
[15] = read-out: IC50 values, range against all tested cell lines

melting point [°C] | Compound | IC50 [1, 8] [µM] | IC50 [2, 9] [µM] | IC50 (ASK (rat glioma); SRB assay, 0.16–20 µg/mL) [µM] | IC50 [3, 10] [µM] | IC50 ([4]; SRB assay, 0.16–20 µg/mL) [µM] | IC50 [5, 11] [µM] | IC50 [6, 12] [µM] | IC50 [5, 13] [µM] | IC50 [7, 14] [µM] | IC50 ([1]; MCF7, 72 h) [µM] | IC50 ([2]; P388, 48 h) [µM] | IC50 (ASK (rat glioma)) [µM] | IC50 ([3]; A549, 72 h) [µM] | IC50 [4] [µM] | IC50 ([5]; Homo sapiens, HEK293, 72 h) [µM] | IC50 ([6]; HT-29, 72 h) [µM] | IC50 [7, 15] [µM] | IC50 ([7]; P-338, HT-29, MCF-7 and A549, read-out: IC50 values, range over four tested cell lines) [µM]
 | COc1ccc(C2OCC3C(c4ccc(OC)c(OC)c4)OCC23)cc1OC (single isomer, unassigned; (-)) [Compound 1, (–)-epieudesmin] | > 20 | > 20 | > 20 | > 20 | > 20 | > 20 | > 20 |  |  |  |  |  |  |  |  |  |  | 
 | COc1cc(C2OCC3C(c4ccc(OC)c(OC)c4)OCC23)ccc1O (single isomer, unassigned; (-)) [Compound 2, (–)-phylligenin] | 36.1 ± 1.02 | 32.5 ± 2.04 | > 20 | > 20 | > 20 | > 20 | > 20 |  |  |  |  |  |  |  |  |  |  | 
 | COc1ccc(C(=O)[C@H]2CO[C@H](c3ccc(OC)c(OC)c3)[C@H]2CO)cc1OC [Compound 3, magnone A] | 4.4 ± 0.1 | 8.96 ± 0.7 | > 20 | 37.9 ± 5.42 | 20.6 ± 3.88 | > 20 | 27.6 ± 3.53 | 23.2 ± 1.17 | 2.03 to 19.7 |  |  |  |  |  |  |  |  | 
 | CCC(CCC(C)C1CCC2C3CC=C4CC(OC5OC(CO)C(O)C(O)C5O)CCC4(C)C3CCC12C)C(C)C (stereo not drawn) [Compound 4, stigma-5-en-3-O-β-glucopyranoside] | > 20 | > 20 | > 20 | > 20 | > 20 | > 20 | > 20 |  |  |  |  |  |  |  |  |  |  | 
 | O=C1c2ccccc2-c2c3c(cc4ccnc1c24)OCO3 [Compound 5, liriodenine] |  |  |  |  |  |  |  |  |  | 9.2 ± 0.25 | 9.6 ± 0.58 | 10.7 ± 0.95 | 9.45 ± 0.18 | 11.02 ± 0.11 | 8.07 ± 0.11 | 10.6 ± 0.36 | 6.59 to 11 | 
146 to 148 | COc1cc(C2OCC(C(=O)c3ccc(OC)c(OC)c3)C2CO)ccc1O (stereo not drawn) [Compound 6, mitrephoran] | 28.63 ± 0.15 | > 20 | > 20 | > 20 | > 20 | > 20 | > 20 |  |  |  |  |  |  |  |  |  |  | 
 | COc1ccc([C@@H]2Oc3c(OC)cc(CCCO)cc3[C@H]2CO)cc1OC [Compound 7, 3′,4-O-dimethylcedrusin] | 3.77 ± 0.05 | 25.9 ± 2.99 | > 20 | 10.3 ± 2.49 | 2.03 ± 0.11 | 8.48 ± 4.04 | 19.7 ± 1.52 |  | 2.03 to 19.7 |  |  |  |  |  |  |  |  | 
 | COc1cc(OC)cc(C2OCC3C(c4ccc(OC)c(OC)c4)OCC23)c1 (stereo not drawn) [Compound 8, 2-(3,4-dimethoxyphenyl)-6-(3,5-dimethoxyphenyl)-3,7-dioxabicyclo[3.3.0]octane] | 21.9 ± 2.96 | > 20 | > 20 | > 20 | 15.9 ± 0.36 | 16.5 ± 0.94 | > 20 |  |  |  |  |  |  |  |  |  |  | 
 | COc1cc(/C=C/C(=O)NCCc2ccc(O)cc2)ccc1O [Compound 9, N-trans-feruloyltyramine] | > 20 | > 20 | > 20 | > 20 | > 20 | > 20 | > 20 |  |  |  |  |  |  |  |  |  |  | 
 | COc1cc2c(cc1OC)-c1c3c(cc4ccnc(c14)C2=O)OCO3 [Compound 10, dicentrinone] |  |  |  |  |  |  |  |  |  | 36.9 ± 1.13 | > 20 | > 20 | > 20 | > 20 | > 20 | > 20 |  | 
 | COc1cccc2c1-c1c3c(cc4ccnc(c14)C2=O)OCO3 [Compound 11, oxoputerine] | 7.05 ± 0.2 | 6.72 ± 0.36 | 6.59 ± 0.43 | 7.21 ± 0.79 | 7.67 ± 0.3 | 7.31 ± 0.07 | 7.28 ± 0.23 |  |  |  |  |  |  |  |  |  | 6.59 to 11 | 
 | CC1(C(=O)O)CCCC2(C)C1CC(O)C13CC4C(CC21)C4(C)C3 (stereo not drawn) [Compound 14, ciliaric acid] | > 20 | > 20 | > 20 | > 20 | > 20 | > 20 | > 20 |  |  |  |  |  |  |  |  |  |  | 
 | COc1cccc2c1C(=O)c1c(C)cc(=O)[nH]c1C2=O [Compound 15, 6-methoxymarcanine A] | 8.33 ± 0.63 | 9.55 ± 2.83 | 38.7 ± 1.12 | 12.3 ± 0.37 | 38.1 ± 0.52 | > 20 | 10.15 ± 0.07 | > 20 | 2.03 to 19.7 |  |  |  |  |  |  |  |  | 8.33 to 12.3
 | COc1cc2c(cc1O)-c1cc3ccc(O)c(OC)c3c[n+]1CC2 [Compound 16, stepharanine] |  |  |  |  |  |  |  |  |  | > 20 | > 20 | > 20 | > 20 | > 20 | > 20 | > 20 |  | 
 | Cc1c2ccncc2c(C)c2c1[nH]c1ccccc12 [Ellipticine, reference compound] | 2.15 ± 0.08 | 2.03 ± 0.08 | 2.56 ± 0.04 | 2.64 ± 0.24 | 2.36 ± 0.04 | 2.68 ± 0.08 | 2.4 ± 0.04 |  |  |  |  |  |  |  |  |  |  | 
